Legend:
Assay in all cases: Eurofins kinase selectivity profile against 380 other human recombinant kinases (Table S2)
Type in all cases: biochemical
[1] = molecular target: T1, 380 human recombinant protein kinases (Homo sapiens, UniProt Q07912); conditions: ACK1(h), read-out: Inhibition rate
T1 construct: purchased Eurofins (Celle Lévescault)
Outline: (§1)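 The inhibitor was sent to a contract lab and screened at various concentrations against 380 human recombinant protein kinases. This served as a counter-screen for MK2 specificity.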

[2] = molecular target: T2, 380 human recombinant protein kinases (Homo sapiens, UniProt Q9UK32); conditions: Rsk4(h), read-out: Inhibition rate (%)
T2 construct: purchased Eurofins (Celle Lévescault)
T2 sequence (Q9UK32 whole entry): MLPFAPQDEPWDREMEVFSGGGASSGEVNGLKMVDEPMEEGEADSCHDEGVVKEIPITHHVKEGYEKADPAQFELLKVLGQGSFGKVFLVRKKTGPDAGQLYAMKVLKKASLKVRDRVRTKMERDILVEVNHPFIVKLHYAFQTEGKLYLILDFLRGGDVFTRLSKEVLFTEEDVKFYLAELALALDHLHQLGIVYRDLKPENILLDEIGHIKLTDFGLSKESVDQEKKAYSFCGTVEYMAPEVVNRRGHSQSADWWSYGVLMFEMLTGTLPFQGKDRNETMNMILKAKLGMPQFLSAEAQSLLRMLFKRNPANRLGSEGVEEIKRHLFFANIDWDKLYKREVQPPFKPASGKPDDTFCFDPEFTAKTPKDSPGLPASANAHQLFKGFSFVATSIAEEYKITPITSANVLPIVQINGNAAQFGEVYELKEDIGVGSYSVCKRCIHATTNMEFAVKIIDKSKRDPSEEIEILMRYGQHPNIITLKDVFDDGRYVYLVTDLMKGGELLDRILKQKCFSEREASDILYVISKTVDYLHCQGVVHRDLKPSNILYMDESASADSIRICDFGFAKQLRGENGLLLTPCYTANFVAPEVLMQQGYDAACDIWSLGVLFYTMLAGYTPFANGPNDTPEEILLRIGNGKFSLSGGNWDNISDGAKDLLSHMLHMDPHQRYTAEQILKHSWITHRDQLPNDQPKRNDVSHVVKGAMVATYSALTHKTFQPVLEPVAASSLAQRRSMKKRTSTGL
Outline: as §1

[3] = molecular target: T3, 380 human recombinant protein kinases (Homo sapiens, UniProt Q16584); conditions: MLK3(h), read-out: Inhibition rate
T3 construct: purchased Eurofins (Celle Lévescault)
T3 sequence (Q16584 whole entry): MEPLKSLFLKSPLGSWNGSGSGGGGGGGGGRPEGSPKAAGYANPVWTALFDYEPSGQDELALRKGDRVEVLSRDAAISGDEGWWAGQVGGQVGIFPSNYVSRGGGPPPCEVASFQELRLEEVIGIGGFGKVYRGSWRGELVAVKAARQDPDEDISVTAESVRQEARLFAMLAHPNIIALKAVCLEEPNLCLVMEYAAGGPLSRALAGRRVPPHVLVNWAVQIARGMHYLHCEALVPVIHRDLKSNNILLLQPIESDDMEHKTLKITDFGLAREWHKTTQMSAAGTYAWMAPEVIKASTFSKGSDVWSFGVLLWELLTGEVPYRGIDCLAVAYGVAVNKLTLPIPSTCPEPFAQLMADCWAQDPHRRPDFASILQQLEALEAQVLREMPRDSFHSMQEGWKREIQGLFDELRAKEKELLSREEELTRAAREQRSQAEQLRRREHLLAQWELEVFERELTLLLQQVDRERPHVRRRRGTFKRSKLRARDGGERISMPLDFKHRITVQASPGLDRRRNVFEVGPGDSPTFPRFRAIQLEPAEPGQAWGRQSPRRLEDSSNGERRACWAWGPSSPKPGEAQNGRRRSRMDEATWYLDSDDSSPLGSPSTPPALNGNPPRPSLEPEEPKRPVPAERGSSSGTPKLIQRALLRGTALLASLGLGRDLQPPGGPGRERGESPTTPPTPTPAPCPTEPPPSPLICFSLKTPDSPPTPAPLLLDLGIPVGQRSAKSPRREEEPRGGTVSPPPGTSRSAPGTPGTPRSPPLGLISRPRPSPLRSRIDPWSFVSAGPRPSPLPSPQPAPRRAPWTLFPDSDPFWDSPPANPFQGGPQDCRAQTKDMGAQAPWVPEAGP
Outline: as §1

[4] = molecular target: T4, 380 human recombinant protein kinases (Homo sapiens, UniProt P15056, V600E); conditions: B-Raf(V599E)(h), read-out: Inhibition rate
T4 construct: purchased Eurofins (Celle Lévescault)
T4 sequence (P15056 whole entry V600E): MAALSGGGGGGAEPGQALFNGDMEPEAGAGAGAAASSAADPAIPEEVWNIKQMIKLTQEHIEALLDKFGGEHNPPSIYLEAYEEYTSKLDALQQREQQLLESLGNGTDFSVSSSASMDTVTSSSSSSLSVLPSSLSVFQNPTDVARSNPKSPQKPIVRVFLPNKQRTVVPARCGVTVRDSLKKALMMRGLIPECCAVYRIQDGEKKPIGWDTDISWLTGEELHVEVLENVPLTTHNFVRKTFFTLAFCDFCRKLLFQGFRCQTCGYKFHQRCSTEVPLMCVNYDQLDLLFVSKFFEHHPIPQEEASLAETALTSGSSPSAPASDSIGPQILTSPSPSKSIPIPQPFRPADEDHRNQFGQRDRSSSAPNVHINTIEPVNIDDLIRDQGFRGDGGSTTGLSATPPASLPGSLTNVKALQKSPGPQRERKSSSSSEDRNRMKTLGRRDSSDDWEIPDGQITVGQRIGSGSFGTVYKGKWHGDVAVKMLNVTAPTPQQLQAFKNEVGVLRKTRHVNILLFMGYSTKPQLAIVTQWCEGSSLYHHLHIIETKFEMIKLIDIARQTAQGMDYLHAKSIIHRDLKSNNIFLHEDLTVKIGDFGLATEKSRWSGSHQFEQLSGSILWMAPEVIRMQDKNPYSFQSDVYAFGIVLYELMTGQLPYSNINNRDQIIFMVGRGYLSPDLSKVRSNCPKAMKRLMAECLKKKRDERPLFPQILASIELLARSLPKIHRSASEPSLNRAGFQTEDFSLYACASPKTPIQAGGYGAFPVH
Outline: as §1

[5] = molecular target: T5, 380 human recombinant protein kinases (Homo sapiens, UniProt O75385); conditions: ULK1(h), read-out: Inhibition rate (%)
T5 construct: purchased Eurofins (Celle Lévescault)
T5 sequence (O75385 1-1050): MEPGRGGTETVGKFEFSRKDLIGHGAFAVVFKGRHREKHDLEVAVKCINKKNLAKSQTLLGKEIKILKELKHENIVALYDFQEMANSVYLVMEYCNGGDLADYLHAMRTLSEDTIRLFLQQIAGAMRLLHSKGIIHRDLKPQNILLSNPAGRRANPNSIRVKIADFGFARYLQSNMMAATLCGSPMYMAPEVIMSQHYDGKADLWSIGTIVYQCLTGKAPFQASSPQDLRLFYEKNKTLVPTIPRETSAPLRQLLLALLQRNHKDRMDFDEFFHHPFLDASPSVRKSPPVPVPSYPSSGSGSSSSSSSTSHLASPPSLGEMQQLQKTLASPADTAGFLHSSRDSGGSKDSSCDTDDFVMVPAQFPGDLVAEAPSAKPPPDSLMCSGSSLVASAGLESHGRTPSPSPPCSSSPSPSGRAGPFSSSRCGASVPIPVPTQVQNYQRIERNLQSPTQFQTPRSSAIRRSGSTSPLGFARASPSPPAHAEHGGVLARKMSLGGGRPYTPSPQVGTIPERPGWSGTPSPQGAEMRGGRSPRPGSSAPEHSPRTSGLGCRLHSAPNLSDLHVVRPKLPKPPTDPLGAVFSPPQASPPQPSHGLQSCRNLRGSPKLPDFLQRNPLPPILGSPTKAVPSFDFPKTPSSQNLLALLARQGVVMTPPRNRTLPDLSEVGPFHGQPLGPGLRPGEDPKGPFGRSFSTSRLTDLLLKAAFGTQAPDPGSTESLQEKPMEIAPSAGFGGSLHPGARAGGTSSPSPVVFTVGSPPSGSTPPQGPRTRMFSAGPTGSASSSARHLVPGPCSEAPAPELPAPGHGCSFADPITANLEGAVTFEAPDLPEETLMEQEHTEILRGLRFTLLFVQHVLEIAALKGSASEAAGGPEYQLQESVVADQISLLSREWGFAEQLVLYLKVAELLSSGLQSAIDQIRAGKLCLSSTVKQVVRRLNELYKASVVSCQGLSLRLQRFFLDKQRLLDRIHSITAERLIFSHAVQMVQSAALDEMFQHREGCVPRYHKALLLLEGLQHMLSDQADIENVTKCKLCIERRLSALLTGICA
Outline: as §1

[6] = molecular target: T6, 380 human recombinant protein kinases (Homo sapiens, UniProt Q6P2M8); conditions: CaMKIß(h), read-out: Inhibition rate
T6 construct: purchased Eurofins (Celle Lévescault)
T6 sequence (Q6P2M8 whole entry): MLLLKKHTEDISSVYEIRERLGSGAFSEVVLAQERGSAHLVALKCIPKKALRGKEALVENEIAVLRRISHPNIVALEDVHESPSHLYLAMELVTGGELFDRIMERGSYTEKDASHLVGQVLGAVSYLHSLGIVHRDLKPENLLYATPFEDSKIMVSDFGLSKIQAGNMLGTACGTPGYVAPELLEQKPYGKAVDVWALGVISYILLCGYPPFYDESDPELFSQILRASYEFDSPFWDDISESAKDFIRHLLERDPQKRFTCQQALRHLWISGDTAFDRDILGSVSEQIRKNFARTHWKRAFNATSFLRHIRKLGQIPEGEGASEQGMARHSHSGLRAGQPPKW
Outline: as §1

[7] = molecular target: T7, 380 human recombinant protein kinases (Homo sapiens, UniProt Q08881); conditions: Itk(h), read-out: Inhibition rate
T7 construct: purchased Eurofins (Celle Lévescault)
T7 sequence (Q08881 1-620): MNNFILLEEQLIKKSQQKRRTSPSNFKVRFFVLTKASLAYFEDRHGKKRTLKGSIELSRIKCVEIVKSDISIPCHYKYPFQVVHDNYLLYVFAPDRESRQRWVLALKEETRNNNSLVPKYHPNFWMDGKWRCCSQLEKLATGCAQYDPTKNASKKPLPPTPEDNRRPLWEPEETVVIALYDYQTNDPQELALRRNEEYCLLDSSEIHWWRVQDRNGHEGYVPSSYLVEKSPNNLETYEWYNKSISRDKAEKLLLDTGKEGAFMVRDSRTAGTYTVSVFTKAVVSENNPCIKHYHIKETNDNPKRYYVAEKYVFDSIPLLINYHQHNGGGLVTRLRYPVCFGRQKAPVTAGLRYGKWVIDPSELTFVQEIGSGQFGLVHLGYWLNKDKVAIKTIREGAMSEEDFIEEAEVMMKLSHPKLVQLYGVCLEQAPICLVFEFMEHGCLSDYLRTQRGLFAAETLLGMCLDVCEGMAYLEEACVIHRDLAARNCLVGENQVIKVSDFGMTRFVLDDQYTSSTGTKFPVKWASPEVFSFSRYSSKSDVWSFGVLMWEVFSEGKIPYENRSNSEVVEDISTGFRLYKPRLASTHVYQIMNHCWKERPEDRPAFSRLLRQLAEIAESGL
Outline: as §1

T1 sequence (Q07912 whole entry): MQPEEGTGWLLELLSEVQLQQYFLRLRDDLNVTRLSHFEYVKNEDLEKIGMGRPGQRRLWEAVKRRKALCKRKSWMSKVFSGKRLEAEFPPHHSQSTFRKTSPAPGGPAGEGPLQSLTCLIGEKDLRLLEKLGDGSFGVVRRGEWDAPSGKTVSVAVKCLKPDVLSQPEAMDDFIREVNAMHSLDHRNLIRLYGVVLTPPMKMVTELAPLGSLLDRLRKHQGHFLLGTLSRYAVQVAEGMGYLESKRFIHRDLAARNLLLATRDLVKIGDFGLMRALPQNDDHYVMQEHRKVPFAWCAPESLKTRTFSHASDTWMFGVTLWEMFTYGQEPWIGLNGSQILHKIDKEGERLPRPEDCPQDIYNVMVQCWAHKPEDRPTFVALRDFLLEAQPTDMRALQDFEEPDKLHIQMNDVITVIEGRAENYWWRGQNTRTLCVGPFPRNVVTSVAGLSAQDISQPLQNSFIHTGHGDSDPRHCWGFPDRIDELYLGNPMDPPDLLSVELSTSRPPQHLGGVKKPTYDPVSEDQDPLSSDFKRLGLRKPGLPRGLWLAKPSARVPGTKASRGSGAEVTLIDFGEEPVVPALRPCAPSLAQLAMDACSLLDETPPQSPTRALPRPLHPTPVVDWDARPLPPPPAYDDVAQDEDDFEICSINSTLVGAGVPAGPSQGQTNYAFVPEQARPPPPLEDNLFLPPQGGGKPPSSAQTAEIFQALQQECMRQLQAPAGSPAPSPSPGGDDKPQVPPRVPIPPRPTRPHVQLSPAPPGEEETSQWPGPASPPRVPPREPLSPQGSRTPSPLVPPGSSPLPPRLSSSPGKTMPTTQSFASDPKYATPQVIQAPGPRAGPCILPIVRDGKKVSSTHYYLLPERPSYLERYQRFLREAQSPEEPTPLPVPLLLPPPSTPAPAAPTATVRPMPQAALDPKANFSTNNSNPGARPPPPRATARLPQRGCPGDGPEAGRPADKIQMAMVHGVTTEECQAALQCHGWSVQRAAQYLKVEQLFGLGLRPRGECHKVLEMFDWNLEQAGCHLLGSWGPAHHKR

Q: `C=CC(=O)Nc1cc(-c2cc(-c3cc4c([nH]3)CCNC4=O)ccn2)ccc1OC(F)(F)F` [compound 11] was tested. Which inhibition at 0.01 µM ([1]; 10 nM) did it give?
A: Its inhibition at 0.01 µM is 1%.

Q: And the inhibition at 0.1 µM ([1]; 100 nM)?
A: Its inhibition at 0.1 µM is 2%.

Q: And the inhibition at 1 µM ([1]; 1000 nM)?
A: The inhibition at 1 µM was 3%.

Q: And the inhibition at 0.01 µM ([2]; 10 nM)?
A: The inhibition at 0.01 µM was -9%.

Q: And the inhibition at 0.1 µM ([2]; 100 nM)?
A: The inhibition at 0.1 µM was -4%.

Q: And the inhibition at 1 µM ([2]; 1000 nM)?
A: Its inhibition at 1 µM is -13%.

Q: What about the inhibition at 0.01 µM ([3]; 10 nM) of the same compound?
A: The inhibition at 0.01 µM was -2%.

Q: What about the inhibition at 0.1 µM ([3]; 100 nM) of the same compound?
A: Its inhibition at 0.1 µM is 8%.

Q: And the inhibition at 1 µM ([3]; 1000 nM)?
A: The inhibition at 1 µM was 43%.

Q: What about the inhibition at 0.01 µM ([4]; 10 nM) of the same compound?
A: The inhibition at 0.01 µM was -6%.

Q: And the inhibition at 0.1 µM ([4]; 100 nM)?
A: The inhibition at 0.1 µM was -14%.

Q: What about the inhibition at 1 µM ([4]; 1000 nM) of the same compound?
A: The inhibition at 1 µM was -2%.

Q: And the inhibition at 0.01 µM ([5]; 10 nM)?
A: The inhibition at 0.01 µM was 6%.

Q: What about the inhibition at 0.1 µM ([5]; 100 nM) of the same compound?
A: The inhibition at 0.1 µM was -8%.

Q: What about the inhibition at 1 µM ([5]; 1000 nM) of the same compound?
A: The inhibition at 1 µM was -3%.

Q: What about the inhibition at 0.01 µM ([6]; 10 nM) of the same compound?
A: Its inhibition at 0.01 µM is -6%.

Q: What about the inhibition at 0.1 µM ([6]; 100 nM) of the same compound?
A: Its inhibition at 0.1 µM is -2%.

Q: What about the inhibition at 1 µM ([6]; 1000 nM) of the same compound?
A: Its inhibition at 1 µM is -2%.

Q: What about the inhibition at 0.01 µM ([7]; 10 nM) of the same compound?
A: Its inhibition at 0.01 µM is 1%.

Q: What about the inhibition at 0.1 µM ([7]; 100 nM) of the same compound?
A: The inhibition at 0.1 µM was -2%.

Q: What about the inhibition at 1 µM ([7]; 1000 nM) of the same compound?
A: The inhibition at 1 µM was 3%.

Reference: article PMC11233931, “Remodeling tumor‐associated macrophage for anti‐cancer effects by rational design of irreversible inhibition of mitogen‐activated protein kinase‐activated protein kinase 2” (MedComm, 2024)
